Test [1] concerns the target T1, HaGST (recombinant rHaGST, delta-class glutathione S-transferase; GenBank EF033109 / ABK40535) (Helicoverpa armigera, UniProt A0MSN0).
T1 sequence (A0MSN0 1-220): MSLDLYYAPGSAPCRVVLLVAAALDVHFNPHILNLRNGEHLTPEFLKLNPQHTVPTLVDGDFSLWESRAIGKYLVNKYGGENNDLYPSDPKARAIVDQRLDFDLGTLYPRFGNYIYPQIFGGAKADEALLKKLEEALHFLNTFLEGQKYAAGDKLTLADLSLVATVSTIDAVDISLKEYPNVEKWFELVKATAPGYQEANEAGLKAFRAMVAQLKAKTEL

The target of test [2] is T1, HaGST (recombinant rHaGST, delta-class glutathione S-transferase; GenBank EF033109 / ABK40535). Put plainly: GSH/CDNB conjugation assay at […] nm with purified rHaGST; Lineweaver-Burk plot. Further details: His-tagged full-length rHaGST expressed from pET-28a in E. coli BL-21 (DE-3), Ni-NTA purified; 220 residues. It counts as biochemical.

As to `N[C@@H](CCC(=O)N[C@@H](CS)C(=O)NCC(=O)O)C(=O)O` [GSH, glutathione], the “enzyme kinetics of purified rHaGST with variable GSH (Lineweaver-Burk), CDNB as” value in test [1] was “the rHaGST activity was calculated under different concentrations of GSH”.

Take `C[C@@]12C(=O)OC(=O)[C@]1(C)[C@H]1CC[C@@H]2O1` [cantharidin]: in test [2], the IC50 – broadly, the concentration that inhibits the measured activity by half – was found to be 12.5 µM.

The record behind these values is PMC3634466, “Cantharidin Impedes Activity of Glutathione S-Transferase in the Midgut of Helicoverpa armigera Hübner” (International Journal of Molecular Sciences, 2013).
